Reference: PubChem BioAssay AID2060333 (Molecular Pharmacology Branch, DTP, NCI, 2025)

System: 845751-090-R-J2-PDC tumor spheroid viability
Test: Anticancer human tumor 845751-090-R-J2-PDC patient-derived head and neck squamous carcinoma cell line growth inhibition [IpAb]
Conditions: spheroids with HUVEC and MSC; for IC50: curve of first compound; for viability, T/C: stronger effect = lower value
Procedure, shortened: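 Combinations with ipatasertib or abemaciclib were tested on tumour spheroids holding HUVEC (25%) and MSC (15%) alongside 60% malignant cells. Top concentration was at or near clinical Cmax (10 microM if undefined), descending in half-log steps.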
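Also: spheroids exposed to compounds for 7 days before readout.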
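For viability, T/C in this document: CTG3D luminescence normalised so that 100% = DMSO vehicle control.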

CC(=O)c1c(C)c2cnc(Nc3ccc(N4CCNCC4)cn3)nc2n(C2CCCC2)c1=O + CC(C)NCC(C(=O)N1CCN(c2ncnc3c2C(C)CC3O)CC1)c1ccc(Cl)cc1
IC50 (second compound 0.1 µM): > 300 nM
IC50 (second compound 0.316 µM): < 0.949 nM
IC50 (second compound 1 µM): < 0.949 nM
IC50 (second compound 3.16 µM): < 0.949 nM
IC50 (second compound 10 µM): < 0.949 nM
viability, T/C (second compound 0.1 µM, first compound 0.000949 µM): 62.6%
viability, T/C (second compound 0.1 µM, first compound 0.003 µM): 64.7%
viability, T/C (second compound 0.1 µM, first compound 0.00949 µM): 51.6%
viability, T/C (second compound 0.1 µM, first compound 0.03 µM): 53.5%
viability, T/C (second compound 0.1 µM, first compound 0.0949 µM): 71.8%
viability, T/C (second compound 0.1 µM, first compound 0.3 µM): 68.5%
viability, T/C (second compound 0.316 µM, first compound 0.000949 µM): 39.1%
viability, T/C (second compound 0.316 µM, first compound 0.003 µM): 33.9%
viability, T/C (second compound 0.316 µM, first compound 0.00949 µM): 32.4%
viability, T/C (second compound 0.316 µM, first compound 0.03 µM): 28.6%
viability, T/C (second compound 0.316 µM, first compound 0.0949 µM): 28.4%
viability, T/C (second compound 0.316 µM, first compound 0.3 µM): 34.1%
viability, T/C (second compound 1 µM, first compound 0.000949 µM): 26.6%
viability, T/C (second compound 1 µM, first compound 0.003 µM): 29.3%
viability, T/C (second compound 1 µM, first compound 0.00949 µM): 24.1%
viability, T/C (second compound 1 µM, first compound 0.03 µM): 34.8%
viability, T/C (second compound 1 µM, first compound 0.0949 µM): 37.3%
viability, T/C (second compound 1 µM, first compound 0.3 µM): 22.9%
viability, T/C (second compound 3.16 µM, first compound 0.000949 µM): 29.4%
viability, T/C (second compound 3.16 µM, first compound 0.003 µM): 26.1%
viability, T/C (second compound 3.16 µM, first compound 0.00949 µM): 26.2%
viability, T/C (second compound 3.16 µM, first compound 0.03 µM): 26.6%
viability, T/C (second compound 3.16 µM, first compound 0.0949 µM): 18%
viability, T/C (second compound 3.16 µM, first compound 0.3 µM): 21.7%
viability, T/C (second compound 10 µM, first compound 0.000949 µM): 16.4%
viability, T/C (second compound 10 µM, first compound 0.003 µM): 15.8%
viability, T/C (second compound 10 µM, first compound 0.00949 µM): 13.7%
viability, T/C (second compound 10 µM, first compound 0.03 µM): 13.8%
viability, T/C (second compound 10 µM, first compound 0.0949 µM): 11.3%
viability, T/C (second compound 10 µM, first compound 0.3 µM): 11.5%
